In US10738043B2, “GLS1 inhibitors for treating disease” (Board of Regents, The University of Texas System, priority 2015, dated 2020):
Where two headings read alike, the source gives them in different places.

How the values were obtained:
[1] = molecular target: T1, GLS1 (purified recombinant human GAC) (Homo sapiens, UniProt O94925); experiment: GLS1 Enzymatic Activity Assay (dual-coupled enzymatic assay); type: biochemical; details: 50 mM potassium phosphate, 1 mM glutamine, read-out: IC50 against GLS1
T1 sequence (O94925 55-598 isoform O94925-3 limits assumed): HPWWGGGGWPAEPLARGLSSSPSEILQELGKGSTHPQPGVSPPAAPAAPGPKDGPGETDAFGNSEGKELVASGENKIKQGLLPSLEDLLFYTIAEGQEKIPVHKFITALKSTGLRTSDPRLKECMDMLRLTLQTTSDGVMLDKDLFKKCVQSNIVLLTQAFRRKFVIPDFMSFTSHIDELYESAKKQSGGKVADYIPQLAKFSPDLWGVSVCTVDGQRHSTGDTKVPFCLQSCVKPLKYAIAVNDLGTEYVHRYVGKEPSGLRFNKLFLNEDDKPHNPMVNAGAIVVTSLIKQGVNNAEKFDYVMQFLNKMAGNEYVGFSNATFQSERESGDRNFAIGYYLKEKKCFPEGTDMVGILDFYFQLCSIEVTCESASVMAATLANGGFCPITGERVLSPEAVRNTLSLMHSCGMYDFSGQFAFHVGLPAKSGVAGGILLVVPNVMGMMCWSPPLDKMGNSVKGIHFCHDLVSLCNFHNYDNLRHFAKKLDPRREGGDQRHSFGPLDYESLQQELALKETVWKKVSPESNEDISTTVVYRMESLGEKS
Method: GLS1 Enzymatic Activity Assay
The inhibition of purified recombinant human GAC by varying concentrations of inhibitors is assessed via a dual-coupled enzymatic assay. The glutamate produced by the glutaminase reaction is used by glutamate oxidase to produce α-ketoglutarate, ammonia, and hydrogen peroxide, with this hydrogen peroxide subsequently being used by horseradish peroxidase to produce resorufin in the presence of Amplex UltraRed. The assay buffer consisted of 50 mM HEPES (pH 7.4), 0.25 mM EDTA and 0.1 mM Triton X-100. GAC was incubated with potassium phosphate (10 minutes at room temperature) prior to incubation with inhibitor (10 minutes at room temperature). The final reaction conditions were as follows: 2 nM GAC, 50 mM potassium phosphate, 100 mU/ml glutamate oxidase (Sigma), 1 mM glutamine (Sigma), 100 mU/ml horseradish peroxidase (Sigma), 75 μM Amplex UltraRed (Life Technologies), and 1% (v/v) DMSO. The production of resorufin was monitored on a Perkin Elmer Envision plate reader (excitation 530 nm, emission 590 nm) either in a kinetics or endpoint mode (at 20 minutes). IC50 values were calculated using a four-parameter logistic curve fit.

A549 cells = experiment: Proliferation Assay (A549 viability, Cell Titer Fluor, 72 hours); type: cell-based; details: read-out: EC50 against A549 cell proliferation
Method: A549 cells were routinely maintained in RPMI 1640 media (Gibco catalog number 11875-093) supplemented with 10% dialyzed fetal bovine serum using a humidified incubator (37° C., 5% CO2 and ambient O2). In preparation for the viability assay, cells were inoculated into 384-well black CulturPlates (Perkin Elmer) at a density of 1000 cells/well in a volume of 40 μl. Following a 24-hour incubation at 37° C., 5% CO2 and ambient 02, cells were treated with compound (10 μl) in a final DMSO concentration of 0.5% (v/v). The microplates were then incubated for 72 hours (37° C., 5% CO2 and ambient O2). Cell Titer Fluor (Promega) was subsequently added (10 μl of 6× reagent) and mixed for 15 minutes at room temperature. The plates were then incubated for 30 minutes (37° C., 5% CO2 and ambient O2) and fluorescence was subsequently read on the Perkin Elmer Envision plate reader. EC50 values were calculated using a four-parameter logistic curve fit.

Row | IC50 [1] [nM] | EC50 (A549 cells; Homo sapiens) [nM] | EC50 (A549 cells) [nM] | Compound
1 | 100 to 500 | 500 to 5000 |  | CC(=O)Nc1nnc(C2CCCN(c3nnc(NC(=O)Cc4cccc(OC(F)(F)F)c4)s3)C2)s1 (stereo not shown) [Example 25, N-(5-(3-(5-acetamido-1,3,4-thiadiazol-2-yl)piperidin-1-yl)-1,3,4-thiadiazol-2-yl)-2-(3-(trifluoromethoxy)phenyl)acetamide]
2 | < 100 | < 100 |  | O=C(Cc1cccc(OC(F)(F)F)c1)Nc1ccc(N2CCC(c3nnc(NC(=O)Cc4ccccn4)s3)C2)nn1 (stereo not shown) [Example 17, 2-(pyridin-2-yl)-N-(5-(1-(6-(2-(3-(trifluoromethoxy)phenyl)acetamido)pyridazin-3-yl)pyrrolidin-3-yl)-1,3,4-thiadiazol-2-yl)acetamide 2,2,2-trifluoroacetate]
3 | 100 to 500 | 500 to 5000 |  | Nc1nnc(C2CCCN(c3ccc(NC(=O)Cc4ccccc4)nn3)C2)s1 (stereo not shown) [Example 1, N-(6-(3-(5-Amino-1,3,4-thiadiazol-2-yl)piperidin-1-yl)pyridazin-3-yl)-2-phenylacetamide]
4 | 100 to 500 | 500 to 5000 |  | O=C(Cc1cccc(OC(F)(F)F)c1)Nc1ccc(N2CCCC(n3cc(C(=O)NCc4ccccn4)nn3)C2)nn1 (stereo not shown) [Example 7, N-(Pyridin-2-ylmethyl)-1-(1-(6-(2-(3-(trifluoromethoxy)phenyl)acetamido)pyridazin-3-yl)piperidin-3-yl)-1H-1,2,3-triazole-4-carboxamide]
5 | < 100 | 100 to 500 |  | O=C(Cc1ccccc1)Nc1ccc(N2CCCC(c3nnc(NC(=O)Cc4ccccn4)s3)C2)nn1 (stereo not shown) [Example 3, 2-Phenyl-N-(6-(3-(5-(2-(pyridin-2-yl)acetamido)-1,3,4-thiadiazol-2-yl)piperidin-1-yl)pyridazin-3-yl)acetamide]
6 | 100 to 500 | 500 to 5000 |  | CNC(=O)c1cn(C2CCN(c3ccc(NC(=O)Cc4cccc(OC(F)(F)F)c4)nn3)C2)nn1 (stereo not shown) [Example 6, N-Methyl-1-(1-(6-(2-(3-(trifluoromethoxy)phenyl)acetamido)pyridazin-3-yl)pyrrolidin-3-yl)-1H-1,2,3-triazole-4-carboxamide]
7 | < 100 | 100 to 500 |  | CC(=O)Nc1nnc(C2CCN(c3ccc(NC(=O)Cc4cccc(OC(F)(F)F)c4)nn3)C2)s1 (stereo not shown) [Example 29, N-(6-(3-(5-acetamido-1,3,4-thiadiazol-2-yl)pyrrolidin-1-yl)pyridazin-3-yl)-2-(3-(trifluoromethoxy)phenyl)acetamide]
8 | < 100 | 100 to 500 |  | O=C(Cc1cccc(OC(F)(F)F)c1)Nc1ccc(N2CCC(c3nnc(NC(=O)Cc4ccc(F)cc4F)s3)C2)nn1 (stereo not shown) [Example 33, 2-(2,4-difluorophenyl)-N-(5-(1-(6-(2-(3-(trifluoromethoxy)phenyl)acetamido)pyridazin-3-yl)pyrrolidin-3-yl)-1,3,4-thiadiazol-2-yl)acetamide]
9 | < 100 | < 100 |  | O=C(Cc1ccccn1)Nc1ccc(C2CCN(c3nnc(C(=O)NCc4cc(C(F)(F)F)ccn4)s3)C2)nn1 (stereo not shown) [Example 38, 5-(3-(6-(2-(pyridin-2-yl)acetamido)pyridazin-3-yl)pyrrolidin-1-yl)-N-((4-(trifluoromethyl)pyridin-2-yl)methyl)-1,3,4-thiadiazole-2-carboxamide]
10 | < 100 | < 100 |  | O=C(Cc1cccc(OC(F)(F)F)c1)Nc1ccc(N2CCCC(c3nnc(NC(=O)Cc4ccccn4)s3)C2)nn1 (stereo not shown) [Example 14, 2-(pyridin-2-yl)-N-(5-(1-(6-(2-(3-(trifluoromethoxy)phenyl)acetamido)pyridazin-3-yl)piperidin-3-yl)-1,3,4-thiadiazol-2-yl)acetamide]
11 | < 100 | < 100 |  | Cc1cccc(CNC(=O)c2nnc(N3CCC(c4ccc(NC(=O)Cc5cccc(C)n5)nn4)C3)s2)n1 (stereo not shown) [Example 50, 5-(3-(6-(2-(6-methylpyridin-2-yl)acetamido)pyridazin-3-yl)pyrrolidin-1-yl)-N-((6-methylpyridin-2-yl)methyl)-1,3,4-thiadiazole-2-carboxamide]
12 | < 100 | 100 to 500 |  | O=C(Cc1ccccc1)Nc1ccc(N2CCCC(c3nnc(NC(=O)Cc4ccccc4)s3)C2)nn1 (stereo not shown) [Example 2, 2-Phenyl-N-(6-(3-(5-(2-phenylacetamido)-1,3,4-thiadiazol-2-yl)piperidin-1-yl)pyridazin-3-yl)acetamide]
13 | < 100 |  | < 100 | 2-(2-phenylthiazol-4-yl)-N-(5-(1-(6-(2-(3-(trifluoromethoxy)phenyl)acetamido)pyridazin-3-yl)pyrrolidin-3-yl)-1,3,4-thiadiazol-2-yl)acetamide [Example 30]
14 | < 100 | 100 to 500 |  | O=C(Cc1ccccn1)Nc1ccc(N2CCC(c3nnc(NC(=O)Cc4cccc(OC(F)(F)F)c4)s3)C2)nn1 (stereo not shown) [Example 42, 2-(pyridin-2-yl)-N-(6-(3-(5-(2-(3-(trifluoromethoxy)phenyl)acetamido)-1,3,4-thiadiazol-2-yl)pyrrolidin-1-yl)pyridazin-3-yl)acetamide]
15 | < 100 | 500 to 5000 |  | Cn1cc(CC(=O)Nc2nnc(C3CCCN(c4ccc(NC(=O)Cc5cccc(OC(F)(F)F)c5)nn4)C3)s2)cn1 (stereo not shown) [Example 24, 2-(1-Methyl-1H-pyrazol-4-yl)-N-(5-(1-(6-(2-(3-(trifluoromethoxy)phenyl)acetamido)pyridazin-3-yl)piperidin-3-yl)-1,3,4-thiadiazol-2-yl)acetamide]
16 | < 100 | 100 to 500 |  | O=C(Cc1cccc(OC(F)(F)F)c1)Nc1ccc(N2CCC(c3nnc(NC(=O)Cc4ccccc4F)s3)C2)nn1 (stereo not shown) [Example 20, 2-(2-fluorophenyl)-N-(5-(1-(6-(2-(3-(trifluoromethoxy)phenyl)acetamido)pyridazin-3-yl)pyrrolidin-3-yl)-1,3,4-thiadiazol-2-yl)acetamide 2,2,2-trifluoroacetate]
17 | < 100 | < 100 |  | O=C(Cc1ccccn1)Nc1ccc(C2CCN(c3nnc(C(=O)NCc4cccc(OC(F)(F)F)c4)s3)C2)nn1 (stereo not shown) [Example 43, 5-(3-(6-(2-(pyridin-2-yl)acetamido)pyridazin-3-yl)pyrrolidin-1-yl)-N-(3-(trifluoromethoxy)benzyl)-1,3,4-thiadiazole-2-carboxamide]
18 | < 100 | 500 to 5000 |  | O=C(Cc1ccccn1)Nc1ccc(N2CCC(c3nnc(NC(=O)Cc4ccccn4)s3)C2)nn1 (stereo not shown) [Example 9, 2-(pyridin-2-yl)-N-(6-(3-(5-(2-(pyridin-2-yl)acetamido)-1,3,4-thiadiazol-2-yl)pyrrolidin-1-yl)pyridazin-3-yl)acetamide]
19 | < 100 | 100 to 500 |  | Cn1ccc(CNC(=O)c2nnc(N3CCC(c4ccc(NC(=O)Cc5ccccn5)nn4)C3)s2)n1 (stereo not shown) [Example 37, N-((1-methyl-1H-pyrazol-3-yl)methyl)-5-(3-(6-(2-(pyridin-2-yl)acetamido)pyridazin-3-yl)pyrrolidin-1-yl)-1,3,4-thiadiazole-2-carboxamide]
20 | 100 to 500 | 500 to 5000 |  | Nc1nnc(C2CCCN(c3ccc(NC(=O)Cc4cccc(OC(F)(F)F)c4)nn3)C2)s1 (stereo not shown) [Example 13, N-(6-(3-(5-amino-1,3,4-thiadiazol-2-yl)piperidin-1-yl)pyridazin-3-yl)-2-(3-(trifluoromethoxy)phenyl)acetamide]
21 | 100 to 500 |  |  | CC(=O)Nc1nnc(C2CCN(c3ccc(NC(=O)Cc4ccccn4)nn3)C2)s1 (stereo not shown) [Example 12, N-(6-(3-(5-acetamido-1,3,4-thiadiazol-2-yl)pyrrolidin-1-yl)pyridazin-3-yl)-2-(pyridin-2-yl)acetamide]

Row | Compound | IC50 [1] [nM] | EC50 (A549 cells; Homo sapiens) [nM] | EC50 (A549 cells) [nM]
22 | Cc1cc(OC2CC(F)(F)C2)cc(CC(=O)Nc2ccc(C3CCN(c4nnc(C(=O)NCc5ccccn5)s4)C3)nn2)n1 (stereo not shown) [Example 51, 5-(3-(6-(2-(4-(3,3-difluorocyclobutoxy)-6-methylpyridin-2-yl)acetamido)pyridazin-3-yl)pyrrolidin-1-yl)-N-(pyridin-2-ylmethyl)-1,3,4-thiadiazole-2-carboxamide] | < 100 | < 100 | 
